How the values were obtained:
Assay type in all cases: cell-based, human
HDAC6 = experiment: HDAC protein levels in CB-MNCs, Western blot densitometry; settings: 24 hr, SCR 8 μM, C433 80 μM, VPA 1.25 mM
Text: (§1) Cellular proteins were separated by SDS-PAGE using Novex (Invitrogen) and transferred by iBlot (Invitrogen). The membranes were probed with mAbs against individual histone deacetylases (HDAC1, HDAC2, HDAC3, HDAC4, HDAC5, HDAC6, and β-actin; Cell Signaling Technology) and developed using a chemiluminescence system with HRP-conjugated secondary antibodies (Amersham Biosciences) according to the manufacturer's instructions.

HDAC3 = experiment: as above; settings: 24 hr, SCR 8 μM, C433 80 μM, VPA 1.25 mM
Text: as §1

HDAC4 = experiment: as above; settings: 24 hr, SCR 8 μM, C433 80 μM, VPA 1.25 mM
Text: as §1

class I and II HDAC = experiment: HDAC protein levels in CB-MNCs, Western blot, all HDACs examined; settings: after 2 hours of treatment
Text: as §1

HDAC2 = experiment: HDAC protein levels in CB-MNCs, Western blot densitometry; settings: 24 hr, SCR 8 μM, C433 80 μM, VPA 1.25 mM
CB CD34+ cells = experiment: Ex vivo expansion of CB CD34+ cells with HDACIs, phenotypic analysis by flow cytometry; settings: 7 days of culture with cytokines plus HDACI
Text: CB collections were purchased from the Placental Blood Program at the New York Blood Center. CB-MNCs were isolated by Ficoll-Hypaque density centrifugation, and CD34+ cells were purified by immunotnagnetic selection as previously described (Chaurasia et al., “Chromatin-Modifying Agents Promote the Ex vivo Production of Functional Human Erythroid Progenitor Cells,” Blood 117:4632-4641 (2011), which is hereby incorporated by reference in its entirety). Highly purified (90%-98%) PCs (4.0-5.0×10^4) were cultured in SF Stemline II (Sigma-Aldrich) culture medium or IMDM (Lonza) containing 30% FBS (HyClone Laboratories) supplemented with 150 ng/ml SCF, 100 ng/ml fms-like tyrosine kinase receptor 3 (FLT3 ligand), 100 ng/ml thrombopoietin (TPO), and 50 ng/ml interleukin 3 (IL-3) (R&D Systems) and incubated in a humidified incubator maintained at 37° C. with 5% CO2. […] The cell populations studied and the various conditions under which they were cultured are referred to by specific terms listed in Table 1. Viable PC and cultured cells were enumerated using the trypan blue exclusion method. The fold expansion of CD34+ cells or subpopulations was calculated based on the number of CD34+ cells determined to be present in an individual CB collection and the number of CD34+ cells that would have been generated if all of the CD34+ cells within that primary CB collection were cultured using the various culture conditions described. PC or cultured cells expanded in the presence or absence of HDACIs were stained with an anti-human CD34 mAb or an isotype-matched control mAb and analyzed using a FACSCanto II (BD). CD34+ cells were re-isolated using a CD34+ cell isolation kit, as previously described, for further phenotypic and functional analyses. All mAbs were purchased from BD Biosciences and Cell Signaling Technology. Phenotypic analyses ([…], […], and […]7) of the ex vivo-expanded cells after 7 days in control cultures or cytokines plus an HDACI were performed as previously described (Chaurasia et al., “Chromatin-Modifying Agents Promote the Ex vivo Production of Functional Human Erythroid Progenitor Cells,” Blood 117:4632-4641 (2011), which is hereby incorporated by reference in its entirety).

HDAC1 = experiment: HDAC protein levels in CB-MNCs, Western blot densitometry; settings: 24 hr, SCR 8 μM, C433 80 μM, VPA 1.25 mM
HDAC5 = experiment: as above; settings: 24 hr, SCR 8 μM, C433 80 μM, VPA 1.25 mM
Text: as §1

SMILES | HDAC6 expression relative to b-ACTIN (%) (HDAC6) | HDAC3 expression relative to b-ACTIN (%) (HDAC3) | HDAC4 expression relative to b-ACTIN (%) (HDAC4) | inhibition of HDAC expression (class I and II HDAC) | HDAC2 expression relative to b-ACTIN (%) (HDAC2) | percentage of CD34+CD90+ cells (CB CD34+ cells) | HDAC1 expression relative to b-ACTIN (%) (HDAC1) | HDAC5 expression relative to b-ACTIN (%) (HDAC5)
Nc1ccccc1NC(=O)CCCCCCC(=O)Nc1ccccc1 [C433, CAY10433] | 35.8 ± 7.2 | 28.0 ± 20.0 | 23.5 ± 16.5 | did not inhibit HDAC expression | 40.0 ± 8.0 | 70.1%±18.4% | 24.3 ± 0.4 | 12.6 ± 1.9
O=C(CCCCCN1C(=O)c2cccc3cccc(c23)C1=O)NO [SCR, Scriptaid] |  |  |  | did not inhibit HDAC expression |  | 73.4%±13.9% |  | 

Source: US11261429B2, “Enriched and expanded human cord blood stem cells for treatment of hematological disorders” (ICAHN SCHOOL OF MEDICINE AT MOUNT SINAI, priority 2013, dated 2022)
